Experimental findings from patent US20260234157A1, “COMPOUND AND METHOD FOR TARGETED DEGRADATION OF ANDROGEN RECEPTOR” (Gan & Lee Pharmaceuticals Co., Ltd., priority 2023, published 2026) are described below.

The structures appear in SMILES notation. Numbering of substitutions follows the chain as printed. pIC50: −log10 of the molar value. Read-outs that look alike come from different tables or passages of the source.

Assay type in all cases: cell-based
In one assay the test system is VCaP cells. The assay can be described thus: Inhibition of proliferation of VCaP cells (WST-8). Conditions: Homo sapiens, read-out: IC50 for inhibiting the proliferation of VCaP cells. As for the experimental part: The inhibitory activity of the compounds disclosed in the present disclosure on the proliferation of VCaP cells
On the first day of the experiment, […] were inoculated in 96 well plates at a density of 15000 cells per well using DMEM medium containing 10% fetal bovine serum, with 100 μL of cell suspension per well. The cells were cultured in a cell culture incubator with 5% CO2 at 37° C. overnight. […] On the ninth day, 96 well plates were taken out, and 20 μL of WST-8 (Beytime, C0040) reagent was added to each well.

For assay [1], the target named is T1, AR protein (Homo sapiens, UniProt P10275, T878A).
T1 construct: degradation activity of the compounds disclosed in the present disclosure on AR protein in LNCaP cells; host or cells: LNCaP FGC
T1 sequence (P10275 1-920 T878A): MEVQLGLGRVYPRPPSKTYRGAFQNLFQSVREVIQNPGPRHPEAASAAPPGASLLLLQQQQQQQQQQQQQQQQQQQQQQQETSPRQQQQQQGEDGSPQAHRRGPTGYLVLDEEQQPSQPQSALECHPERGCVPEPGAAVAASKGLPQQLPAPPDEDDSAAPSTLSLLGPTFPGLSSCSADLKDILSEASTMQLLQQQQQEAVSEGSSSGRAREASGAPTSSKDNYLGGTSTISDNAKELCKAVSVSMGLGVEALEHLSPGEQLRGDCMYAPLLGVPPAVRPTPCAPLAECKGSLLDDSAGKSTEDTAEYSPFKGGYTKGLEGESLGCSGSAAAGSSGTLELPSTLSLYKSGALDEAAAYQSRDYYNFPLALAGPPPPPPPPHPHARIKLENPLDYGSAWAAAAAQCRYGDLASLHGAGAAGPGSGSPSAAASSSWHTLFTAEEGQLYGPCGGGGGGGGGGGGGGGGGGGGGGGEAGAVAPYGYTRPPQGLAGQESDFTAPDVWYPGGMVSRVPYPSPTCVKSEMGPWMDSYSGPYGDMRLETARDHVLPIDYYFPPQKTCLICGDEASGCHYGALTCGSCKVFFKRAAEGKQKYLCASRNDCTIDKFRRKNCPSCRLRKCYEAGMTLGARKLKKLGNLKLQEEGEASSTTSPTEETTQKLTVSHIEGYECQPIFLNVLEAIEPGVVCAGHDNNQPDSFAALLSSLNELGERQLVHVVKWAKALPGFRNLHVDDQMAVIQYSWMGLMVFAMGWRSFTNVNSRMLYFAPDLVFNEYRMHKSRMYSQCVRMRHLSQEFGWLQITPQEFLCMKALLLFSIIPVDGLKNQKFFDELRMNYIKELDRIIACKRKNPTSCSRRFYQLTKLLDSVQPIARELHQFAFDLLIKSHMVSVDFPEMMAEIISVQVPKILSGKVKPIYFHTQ
The assay can be described thus: Degradation of AR protein in LNCaP cells (Western blot). Conditions: LNCaP cells, 8 hours, Western blot grayscale, GAPDH internal reference; for inhibition at 0.01 µM: compound 10 nM, read-out: Degradation rates of the AR protein in LNCaP cells, 10 nM (%); for inhibition at 0.1 µM: compound 100 nM, read-out: Degradation rates of the AR protein in LNCaP cells, 100 nM (%). The gist of the method: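 Percent AR degradation was derived from GAPDH-normalised Western blot band intensities (infrared detection) in LNCaP lysates.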
In general terms: A western blot detects proteins with antibodies after separation by electrophoresis.

The test system of the next assay is LNCaP FGC cells. The assay can be described thus: Inhibition of proliferation of LNCaP cells (WST-8). Conditions: LNCaP FGC cells, 96 hours, WST-8 absorbance at 450 nm, read-out: IC50 for inhibiting the proliferation of LNCaP cells. The procedure:
The cells were cultured in a cell culture incubator with 5% CO2 at 37° C. overnight. […] On the sixth day, 96 well plates were taken out, and 20 μL of WST-8 (Beytime, C0040) reagent was added to each well.

The target of assay [2] is T2, AR protein (Homo sapiens, UniProt P10275).
T2 construct: degradation activity of the compounds disclosed in the present disclosure on AR protein in VCaP cells; host or cells: VCaP
T2 sequence (P10275 1-920): T1 sequence (P10275 1-920 T878A) with A878T
As to the kind of experiment: Degradation of AR protein in VCaP cells (Western blot). Conditions: 8 hours; for inhibition at 0.01 µM: read-out: Degradation rate of the AR protein in VCaP cells, 10 nM (%); for inhibition at 0.1 µM: read-out: Degradation rate of the AR protein in VCaP cells, 100 nM (%). The procedure, abridged: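 Western blot readout: AR band grayscale normalised to GAPDH, used to derive degradation rate. Lysates came from VCaP cells exposed to compound for 8 h, with solvent controls run in parallel.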

Take `CC1(C)C(=O)N(c2ccc(C#N)c(C(F)(F)F)c2)C(=S)N1c1ccc(C(=O)N2CC(N3CCC4(CCc5cc6c(cc5O4)C(=O)N(C4CCC(=O)NC4=O)C6)CC3)C2)c(F)c1` (stereo not drawn) [Compound 105]: the pIC50 with VCaP cells (VCaP, 168 h) is 5.53.
As for `CC1(CN2CCC3(CC2)COc2c3ccc3c2CN(C2CCC(=O)NC2=O)C3=O)CCN(c2ccc(C(=O)N[C@H]3C(C)(C)[C@H](Oc4ccc(C#N)c(Cl)c4)C3(C)C)cc2)CC1` (stereo partly drawn) [Compound 222], the inhibition at 0.01 µM at AR protein [1] was 4%; on AR protein [2] (compound at 10 nM), 8%. The results for the inhibition at 0.1 µM at AR protein [1] and on AR protein [2] (compound at 100 nM) were 75% and 61%, respectively. Moreover, the pIC50 in the assay with LNCaP FGC cells (Homo sapiens, LNCaP, 96 h) was 6.06.
Regarding `N#Cc1ccc(O[C@H]2CC[C@H](NC(=O)c3ccc(N4CCC5(CCC(C(=O)N6CCC7(CC6)COc6c7ccc7c6CN(C6CCC(=O)NC6=O)C7=O)CC5)CC4)nn3)CC2)cc1Cl` (stereo partly drawn) [Compound 253], the inhibition at 0.01 µM amounted to 37% on AR protein [1] and 10% on AR protein [2] (compound at 10 nM). The inhibition at 0.1 µM at AR protein [1] came out at 41%; on AR protein [2] (compound at 100 nM), 55%. In the assay on LNCaP FGC cells (Homo sapiens, LNCaP, 96 h), the pIC50 was 6.26.
Take `COc1cc(O[C@H]2C(C)(C)[C@H](NC(=O)c3ccc(N4CCC(C#N)(CN5CCC6(CC5)COc5c6ccc6c5CN(C5CCC(=O)NC5=O)C6=O)CC4)nn3)C2(C)C)ccc1C#N` (stereo partly drawn) [Compound 224]: the inhibition at 0.01 µM is 41% at AR protein [1] and 24% on AR protein [2] (compound at 10 nM). Besides, the inhibition at 0.1 µM at AR protein [1] was determined as 52%; at AR protein [2] (compound at 100 nM), 57%. In the assay on LNCaP FGC cells (Homo sapiens, LNCaP, 96 h), the pIC50 was 7.96.
For `COCC1(CN2CCC3(CC2)COc2c3ccc3c2CN(C2CCC(=O)NC2=O)C3=O)CCN(c2ccc(C(=O)N[C@H]3CC[C@H](Oc4ccc(C#N)c(Cl)c4)CC3)nn2)CC1` (stereo partly drawn) [Compound 258] the same measures were 71%, 60%, 67%, 84% and 7.77.
Turning to `CC1(C)[C@H](NC(=O)c2ccc(N3CCC(C#N)(CN4CCC5(CC4)COc4c5ccc5c4CN(C4CCC(=O)NC4=O)C5=O)CC3)nn2)C(C)(C)[C@H]1Oc1ccc(C#N)c(Cl)c1` (stereo partly drawn) [Compound 225], the inhibition at 0.01 µM is -35% on AR protein [1] and -29% at AR protein [2] (compound at 10 nM). The inhibition at 0.1 µM at AR protein [1] was 7%; at AR protein [2] (compound at 100 nM) it was 30%. Moreover, in the assay with LNCaP FGC cells (Homo sapiens, LNCaP, 96 h), the pIC50 is 7.52.
For `COc1cc(O[C@H]2C(C)(C)[C@H](NC(=O)c3ccc(N4CCC(F)(CN5CCC6(CC5)COc5c6ccc6c5CN(C5CCC(=O)NC5=O)C6=O)CC4)cc3)C2(C)C)ccc1C#N` (stereo partly drawn) [Compound 223] the same measures were 27%, -3%, 20%, 52% and 8.05.
Taken in the same sequence, the figures for `N#Cc1ccc(O[C@H]2CC[C@H](NC(=O)c3ccc(N4CCC5(CC4)COc4c5ccc5c4CN(C4CCC(=O)NC4=O)C5=O)nn3)CC2)cc1Cl` (stereo partly drawn) [Compound 200] were 44%, 25%, 27%, 57% and 4.04.
Regarding `CC1(C)C(=O)N(c2ccc(C#N)c(C(F)(F)F)c2)C(=S)N1c1ccc(C(=O)N2CCC3(CC2)CC(N2CCC4(CCc5cc6c(cc5O4)C(=O)N(C4CCC(=O)NC4=O)C6=O)CC2)C3)c(F)c1` (stereo not drawn) [Compound 103], in the assay on VCaP cells (VCaP cells, 168 hours, WST-8 absorbance at 450 nm), the pIC50 was 5.56.
`CC1(C)C(=O)N(c2ccc(C#N)c(C(F)(F)F)c2)C(=S)N1c1ccc(C(=O)N2CC(CN3CCC4(CCc5cc6c(cc5O4)C(=O)N(C4CCC(=O)NC4=O)C6=O)CC3)C2)c(F)c1` (stereo not drawn) [Compound 84]: in the assay on VCaP cells (VCaP, 168 h), the pIC50 is 5.34.
Take `N#Cc1ccc(O[C@H]2CC[C@H](NC(=O)c3ccc(C#CC4CC5(C4)CC(N4CCC6(CC4)COc4c6ccc6c4CN(C4CCC(=O)NC4=O)C6=O)C5)nn3)CC2)cc1Cl` (stereo partly drawn) [Compound 252]: the inhibition at 0.01 µM at AR protein [1] is 56%; on AR protein [2] (compound at 10 nM), 80%. Further, the inhibition at 0.1 µM at AR protein [1] was found to be 70%; at AR protein [2] (compound at 100 nM), 87%. Moreover, the pIC50 with LNCaP FGC cells (Homo sapiens, LNCaP, 96 h) is 5.20.
Turning to `N#Cc1ccc(O[C@H]2CC[C@H](NC(=O)c3ccc(N4CC5(CCC(N6CCC7(CCc8ccc9c(c8O7)CN(C7CCC(=O)NC7=O)C9=O)CC6)CC5)C4)nn3)CC2)cc1Cl` (stereo partly drawn) [Compound 153], the inhibition at 0.01 µM at AR protein [1] worked out at 23%; on AR protein [2] (compound at 10 nM) it was 35%. The values for the inhibition at 0.1 µM at AR protein [1] and at AR protein [2] (compound at 100 nM) were 19% and 76%, respectively. In addition, the pIC50 in the assay on LNCaP FGC cells (Homo sapiens, LNCaP, 96 h) was 4.87.
With `N#Cc1ccc(O[C@H]2CC[C@H](NC(=O)c3ccc(N4CCC(F)(CN5CCC6(CCc7ccc8c(c7O6)CN(C6CCC(=O)NC6=O)C8=O)CC5)CC4)nn3)CC2)cc1Cl` (stereo partly drawn) [Compound 166], on AR protein [1], the inhibition at 0.01 µM was found to be 36% and the inhibition at 0.1 µM stood at 19%. Moreover, the pIC50 with LNCaP FGC cells was 4.14. In addition, at AR protein [2] (compound at 10 nM), the “Degradation rate of the AR protein in VCaP cells, 10 nM (%)” value is recorded as 15% and the inhibition at 0.01 µM came to 43%. On AR protein [2] (compound at 100 nM), the “Degradation rate of the AR protein in VCaP cells, 100 nM (%)” value was found to be 42% and the inhibition at 0.1 µM is 60%.
Turning to `COc1cc(O[C@H]2C(C)(C)[C@H](NC(=O)c3ccc(N4CCC(C)(CN5CCC6(CCc7ccc8c(c7O6)C(=O)N(C6CCC(=O)NC6=O)C8=O)CC5)CC4)cc3)C2(C)C)ccc1C#N` (stereo partly drawn) [Compound 268], the inhibition at 0.01 µM on AR protein [1] was 15%; on AR protein [2] (compound at 10 nM), -26%. In addition, the figures for the inhibition at 0.1 µM at AR protein [1] and at AR protein [2] (compound at 100 nM) were 31% and -32%, respectively. Further, in the assay on LNCaP FGC cells (Homo sapiens, LNCaP, 96 h), the pIC50 was 4.05.
